US12162884B2, “Solid forms of (R)-N-(2-(5-fluoropyridin-3-yl)-8-isopropylpyrazolo[1,5-a] [1,3,5]triazin-4-yl)-2,3,4,9-tetrahydro-1H-carbazol-3-amine as aryl hydrocarbon receptor (AHR) inhibitors” (Ikena Oncology, Inc., priority 2019, dated 2024)
≈ marks a conversion by molar mass, not a printed value.

Columns and labels:
[1] = Solubility studies in water, FaSSIF, FeSSIF and FaSSGF (excess solids in 5 mL medium at 37° C., HPLC; pH, XRPD and NMR of remaining material); type: physicochemical; conditions: for pH: pH of solubility sample; for solubility at 30 min / solubility at 120 min / solubility at 24 h: 37 °C, thermodynamic from solid
Protocol: Simulated fluids were sourced from and prepared according to biorelevant.com using their FaSSIF/FeSSIF/FaSSGF Powder (v1, formerly known as SIF Powder). Samples were prepared by adding excess solids to 5 mL of medium at 37° C. Samples were pulled and filtered at 30 minutes, 120 minutes, and 24 hours and tested for solution concentration using the HPLC parameters described below in Table 13.
The pH of the samples at each timepoint was also measured; pH paper was used at 30 minutes and 120 minutes due to the small sample size, and a pH meter was used at 24 hours. The remaining material from all trials was analyzed by XRPD after 24 hours to determine if any polymorphic form changes had taken place. The remaining material from trials in water was analyzed by NMR after 24 hours to determine if disassociation had taken place.

[2] = Stability studies at 40° C./75% RH (HPLC); type: physicochemical; conditions: for stability / degradation over time: Time 0, 1 week, 2 weeks, 4 weeks
Protocol: Stability studies of compound A, Form B, Compound 1, Form B, Compound 2, Form A, Compound 3, Form B, and Compound 4, Form A was carried out at 40° C./75% RH. Samples were stored in loosely capped vials in a chamber containing a saturated NaCl solution to achieve approximately 75% RH within the chamber. The chamber was stored in a 40° C. oven. Samples were analyzed at Time 0, 1 week, 2 weeks, and 4 weeks using the HPLC parameters described above in Table 13.

Compound: CC(C)c1cnn2c(N[C@@H]3CCc4[nH]c5ccccc5c4C3)nc(-c3cncc(F)c3)nc12 [Compound 4 Form A]
- Solubility ([1]; FaSSGF, 37° C., 30 minutes): <0.1 µg/mL
- Solubility ([1]; FaSSGF, 37° C., 120 minutes): <0.1 µg/mL
- Solubility ([1]; FaSSGF, 37° C., 24 hours): <0.1 µg/mL
- Solubility ([1]; FaSSIF, 37° C., 30 minutes): 71 µg/mL (≈ 161 µM)
- Solubility ([1]; FaSSIF, 37° C., 120 minutes): 38 µg/mL (≈ 86.1 µM)
- Solubility ([1]; FaSSIF, 37° C., 24 hours): 25 µg/mL (≈ 56.6 µM)
- Solubility ([1]; FeSSIF, 37° C., 30 minutes): 48 µg/mL (≈ 109 µM)
- Solubility ([1]; FeSSIF, 37° C., 120 minutes): 110 µg/mL (≈ 249 µM)
- Solubility ([1]; FeSSIF, 37° C., 24 hours): 33 µg/mL (≈ 74.7 µM)
- Solubility ([1]; Water, 37° C., 30 minutes): <0.1 µg/mL
- Solubility ([1]; Water, 37° C., 120 minutes): <0.1 µg/mL
- Solubility ([1]; Water, 37° C., 24 hours): <0.1 µg/mL
- pH ([1]; FaSSGF, 30 minutes, pH paper): 1.5
- pH ([1]; FaSSGF, 120 minutes, pH paper): 1.5
- pH ([1]; FaSSGF, 24 hours, pH meter): 1.1
- pH ([1]; FaSSIF, 30 minutes, pH paper): 6
- pH ([1]; FaSSIF, 120 minutes, pH paper): 5.5
- pH ([1]; FaSSIF, 24 hours, pH meter): 1.9
- pH ([1]; FeSSIF, 30 minutes, pH paper): 5
- pH ([1]; FeSSIF, 120 minutes, pH paper): 4.5
- pH ([1]; FeSSIF, 24 hours, pH meter): 4.4
- pH ([1]; Water, 30 minutes, pH paper): 4.5
- pH ([1]; Water, 120 minutes, pH paper): 3
- pH ([1]; Water, 24 hours, pH meter): 1.5
- % Area ([2]; 1 Week, HPLC): 94.31 % Area
- % Area ([2]; 2 Weeks, HPLC): 94.20 % Area
- % Area ([2]; 4 Weeks, HPLC): 99.37 % Area
- stability / degradation over time ([2]; HPLC): exhibited degradation at 1 and 2 weeks, but the degradant peaks were no longer present at 4 weeks
- % Area ([2]; Time 0, HPLC): 99.77 % Area

Compound: CC(C)c1cnn2c(N[C@@H]3CCc4[nH]c5ccccc5c4C3)nc(-c3cncc(F)c3)nc12.CS(=O)(=O)O [Compound 3 Form B]
- solubility at 30 min ([1]; FaSSGF, fassgf or other biorelevant, 30 minutes): < 0.1 µg/mL
- solubility at 120 min ([1]; FaSSGF, fassgf or other biorelevant, 120 minutes): < 0.1 µg/mL
- solubility at 24 h ([1]; FaSSGF, fassgf or other biorelevant, 24 hours): < 0.1 µg/mL
- solubility at 30 min ([1]; FaSSIF, 30 minutes): 65 µg/mL
- solubility at 120 min ([1]; FaSSIF, 120 minutes): 34 µg/mL
- solubility at 24 h ([1]; FaSSIF, 24 hours): 16 µg/mL
- solubility at 24 hours in FeSSIF ([1]; FeSSIF, 37° C., 24 hours, comparison among the tested forms): highest solubility
- solubility at 30 min ([1]; FeSSIF, 30 minutes): 27 µg/mL
- solubility at 120 min ([1]; FeSSIF, 120 minutes): 43 µg/mL
- solubility at 24 h ([1]; FeSSIF, 24 hours): 160 µg/mL
- pH ([1]; FaSSGF, 30 minutes, pH paper): 1.5
- pH ([1]; FaSSGF, 120 minutes, pH paper): 1.5
- pH ([1]; FaSSGF, 24 hours, pH meter): 1.2
- pH ([1]; FaSSIF, 30 minutes, pH paper): 6
- pH ([1]; FaSSIF, 120 minutes, pH paper): 6
- pH ([1]; FaSSIF, 24 hours, pH meter): 5.7
- pH ([1]; FeSSIF, 30 minutes, pH paper): 5
- pH ([1]; FeSSIF, 120 minutes, pH paper): 5
- pH ([1]; FeSSIF, 24 hours, pH meter): 4.4
- pH ([1]; Water, 30 minutes, pH paper): 4
- pH ([1]; Water, 120 minutes, pH paper): 4
- pH ([1]; Water, 24 hours, pH meter): 2.4
- solubility at 30 min ([1]; water, 30 minutes): < 0.1 µg/mL
- solubility at 120 min ([1]; water, 120 minutes): < 0.1 µg/mL
- solubility at 24 h ([1]; water, 24 hours): < 0.1 µg/mL
- % Area ([2]; 1 Week, HPLC): 91.60 % Area
- % Area ([2]; 2 Weeks, HPLC): 69.61 % Area
- % Area ([2]; 4 Weeks, HPLC): 16.23 % Area
- stability / degradation over time ([2]; HPLC): significant degradation was observed over time
- % Area ([2]; Time 0, HPLC): 99.88 % Area
- solid state of the solids at the end of the study ([2]; end of the study): lost all crystallinity and became x-ray amorphous
